Legend:
[1] = biological target: T1, Tyrosinekinase of the EGF (Epidermal Growth Factor) Receptor (Homo sapiens, UniProt P00533); experiment: Inhibition of tyrosinekinase of the EGF receptor (A431 cell membranes); assay type: biochemical; settings: membranes of A431 cells; samples containing poly(Glu, Ala, Tyr 6:3:1) substrate and EGF; 15 minutes at 30° C.; read-out: IC50, concentration of substance which inhibits the enzyme activity by 50% (converted)
T1 construct: Membranes of A431 cells (ATCC CRL 1555) are used as the source of EGF receptors; endogenous in cells; host or cells: A431 cell membranes (ATCC CRL 1555)
Experimental: 1 - Measurement of the Inhibition of Tyrosinekinase of the EGF (Epidermal Growth Factor) Receptor
Membranes of A431 cells (ATCC CRL 1555) are used as the source of EGF receptors. This cellular lineage expresses a large number of EGF receptors at its surface which have a tyrosinekinase activity.
These cells are pre-incubated with or without EGF (1000 nM) for 15 minutes and are added to a corresponding HEPES buffer (N-2-hydroxyethyl-piperazine-N'-2-ethanesulphonic acid) (with or without EGP) and containing Mg^2+ (10 mM) and Mn^2+ (2 mM) ions, 0.2% of X-100 triton, sodium orthovanadate (20 micromoles) and the inhibitor.
Samples either containing or not containing the poly substrate (Glu, Ala, Tyr 6:3:1) are prepared. The reaction is initiated by the addition of [gamma P^32 ] ATP (32 micromoles). After incubation for 15 minutes at 30° C. the samples are precipitated using 10% […], followed by filtering on a millipore membrane and the incorporated P^32 is measured with a liquid scintillation counter.
The results are expressed in IC50, that is the concentration of substance which inhibits the enzyme activity by 50%, determined by a series of dilutions starting at 51 micrograms/ml in the samples containing the substrate and EGF.

[2] = test system: catalytic sub-unit of the proteinkinase dependent on cyclic 3',5'-AMP; experiment: Inhibition of the proteinkinase dependent on cyclic 3',5'-AMP; assay type: biochemical; settings: inhibitor 40 micrograms/ml; KEMPTID substrate; pH 6.9; 15 minutes at 30° C.
Experimental: 2 - Measurement of the Inhibition of the Proteinkinase Dependent on Cyclic 3',5'-AMP
The catalytic sub-unit of the proteinkinase dependent on cyclic 3',5'-AMP was reconstituted as indicated in SIGMA®. The enzyme activity was measured using KEMPTID® (SIGMA®) as substrate (KEMPTID - Leu-Arg-Arg-Ala-Ser-Leu-Gly).
The inhibitor is pre-incubated at pH 6.9 with the enzyme, the substrate (190 micromoles), Mg^+2 (5 mM), 0.25 mg/ml of BSA (Bovine Serum Albumin) and 3.75 mM of mercaptoethanol in 50 mM of 4-morpholinopropanesulphonic acid.
The reaction is initiated using gamma P^32 ATP (40 micromoles). After 15 minutes at 30° C. an aliquot is placed on an ion-exchange paper ([…]; WHATMAN®) plunged into phosphoric acid (75 mM), washed, dried and the incorporation of P^32 is measured using a liquid scintillation counter.
The results are expressed as a percentage of the enzyme activity inhibition at a concentration of inhibitor of 40 micrograms/ml.

T1 sequence (P00533 25-1210): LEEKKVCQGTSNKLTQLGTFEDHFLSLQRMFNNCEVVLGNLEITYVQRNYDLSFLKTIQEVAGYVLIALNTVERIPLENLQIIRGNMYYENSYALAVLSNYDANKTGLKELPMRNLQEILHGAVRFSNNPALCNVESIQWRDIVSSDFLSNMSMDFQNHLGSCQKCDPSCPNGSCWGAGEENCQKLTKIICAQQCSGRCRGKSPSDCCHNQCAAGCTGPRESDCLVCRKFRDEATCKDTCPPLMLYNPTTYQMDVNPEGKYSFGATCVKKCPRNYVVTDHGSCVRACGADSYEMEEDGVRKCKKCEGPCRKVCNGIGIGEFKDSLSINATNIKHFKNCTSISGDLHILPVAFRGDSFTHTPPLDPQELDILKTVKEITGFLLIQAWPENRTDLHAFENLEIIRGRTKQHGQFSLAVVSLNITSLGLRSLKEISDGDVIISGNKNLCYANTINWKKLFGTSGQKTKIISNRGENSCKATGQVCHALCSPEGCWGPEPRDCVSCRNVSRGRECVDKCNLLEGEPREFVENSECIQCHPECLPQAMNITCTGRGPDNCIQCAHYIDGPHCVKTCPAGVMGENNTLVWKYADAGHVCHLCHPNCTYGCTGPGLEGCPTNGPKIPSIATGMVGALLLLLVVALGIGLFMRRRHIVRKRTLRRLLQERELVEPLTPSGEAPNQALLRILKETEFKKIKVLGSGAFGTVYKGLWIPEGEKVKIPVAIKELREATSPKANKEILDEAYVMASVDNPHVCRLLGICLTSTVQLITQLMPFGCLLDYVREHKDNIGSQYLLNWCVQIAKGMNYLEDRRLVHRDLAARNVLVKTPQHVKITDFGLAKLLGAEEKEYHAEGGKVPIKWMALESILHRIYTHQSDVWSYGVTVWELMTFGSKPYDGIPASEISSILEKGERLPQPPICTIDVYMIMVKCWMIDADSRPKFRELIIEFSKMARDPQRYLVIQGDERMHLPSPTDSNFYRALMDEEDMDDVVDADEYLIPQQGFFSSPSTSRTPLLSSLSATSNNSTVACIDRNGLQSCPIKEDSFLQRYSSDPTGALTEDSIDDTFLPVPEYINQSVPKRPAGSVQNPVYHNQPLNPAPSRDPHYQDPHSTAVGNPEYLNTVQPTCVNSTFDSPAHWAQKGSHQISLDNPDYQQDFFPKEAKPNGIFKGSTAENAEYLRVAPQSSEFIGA
T1 sequence (P01133 971-1023 partner limits assumed): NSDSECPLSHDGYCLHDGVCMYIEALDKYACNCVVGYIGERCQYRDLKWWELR

Row | IC50 [1] | percentage of the enzyme activity inhibition [2] | Compound
1 | 0.621 µM | 18% | Br.CNC1Cc2ccc(O)c(O)c2-c2ccccc21 (stereo not shown) [Example 3, 3,4-dihydroxy-9-methylamino-9,10-dihydrophenanthrene (hydrobromide)]
2 | 2.35 µM | 19% | CN(C)C1Cc2ccc(O)c(O)c2-c2ccccc21 (stereo not shown) [Product A, 3,4-dihydroxy-9-dimethylamino-9,10-dihydrophenanthrene]

Reference: patent publication US5189065A, “Use of derivatives of 9,10-dihydrophenanthrene for the preparation of an anti-tumor medicament” (Roussel Uclaf, priority 1989, dated 1993)
